Reference: publication PMC12471299, “Secondary Metabolites of the Marine Sponge-Derived Fungus Aspergillus subramanianii 1901NT-1.40.2 and Their Antimicrobial and Anticancer Activities” (Marine Drugs, 2025)
Converted amounts (≈) assume the structure as drawn. Where two headings read alike, the source gives them in different places.

Key:
[1] = tested on: MCF-10A breast epithelial cells; test: Cell viability assay (MTT); assay type: cell-based, human; conditions: MCF10A
Outline: (§1)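 Cells were seeded (H9c2 3 × 10^3, MDA-MB-231 and MCF-10A 5 × 10^3, HaCaT 1 × 10^4 cells/well), left 24 h, then exposed to compounds up to 100 µM for 24 h or 48 h at 37 °C, 5% CO2. Viability was read by MTT and expressed as percentage of DMSO control.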

[2] = tested on: MCF-7 breast cancer cells; test: Cell viability assay (MTT); assay type: cell-based, human
[3] = tested on: MDA-MB-231 breast cancer cells; test: Cell viability assay (MTT); assay type: cell-based, human; conditions: for IC50: read-out: Cytotoxicity IC50
Outline: as §1

HaCaT keratinocytes = test: Cell viability assay (MTT); assay type: cell-based, human; conditions: for IC50: read-out: Cytotoxicity IC50
Outline: as §1

[4] = Cell viability assay (MTT); assay type: cell-based, human; conditions: human, read-out: Cytotoxicity IC50
Outline: as §1

[5] = tested on: Staphylococcus aureus ATCC 21027; test: Antimicrobial assay, growth inhibition (optical density); assay type: cell-based
Outline: (§2)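 Compound tested from 100 µM downward; 1% DMSO in PBS as negative control. Planktonic growth read as OD at 620 nm after 18 h; 18 h biofilm formation quantified with MTT at 570 nm. Values as percent of control, reported as minimal concentration giving 50% reduction (MIC50).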

Candida albicans KMM 455 [6] = test: as above; assay type: cell-based; conditions: C. albicans; for MIC50: 18 h
Outline: as §2

[7] = tested on: Escherichia coli VKPM (B-7935); test: as above; assay type: cell-based
Outline: as §2

H9c2 cardiomyocytes = test: Cell viability assay (MTT); assay type: cell-based, rat; conditions: for IC50: read-out: Cytotoxicity IC50
Outline: as §1

[8] = Cell viability assay (MTT); assay type: cell-based, rat; conditions: rat, H9c2 cardiomyocytes, read-out: Cytotoxicity IC50
Outline: as §1

[9] = tested on: Staphylococcus aureus ATCC 21027; test: Biofilm formation assay (MTT); assay type: cell-based
Outline: as §2

Candida albicans KMM 455 [10] = test: Biofilm formation assay (MTT); assay type: cell-based
Outline: (§3)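 Strains were precultured on Mueller Hinton agar at 37 °C for 24 h, then exposed to compound at up to 100 µM. Growth was read as OD620 after 18 h; 18 h biofilm formation was quantified with MTT at OD570. Values are MIC50, the lowest concentration cutting growth or biofilm by 50% versus 1% DMSO/PBS control.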

[11] = tested on: Escherichia coli VKPM (B-7935); test: Biofilm formation assay (MTT); assay type: cell-based
Outline: as §3

E. coli = tested on: E. coli; set-up: method as in PMID 28498358; conditions: cited from earlier work
[12] = tested on: non-small cell lung cancer NCIH460 cells; conditions: cited from earlier work
CNS glioma SF-268 cells = conditions: cited from earlier work
[13] = tested on: breast cancer MCF-7 cells; conditions: cited from earlier work

C=C(C)C1CCC23C(O)CCC(C)C2(C)CCC(C)C3C1c1c[nH]c2ccccc12 (stereo not drawn) [Compound 5, 10,23-dihydro-24,25-dehydroaflavinine]
cell viability ([1]; 24 h, 1.0 µM): 101.7 ± 4.4 % of control | cell viability ([1]; 24 h, 10.0 µM): 95.4 ± 2.3 % of control | cell viability ([1]; 24 h, 100.0 µM): 16.1 ± 8.6 % of control | cell viability ([1]; 48 h, 1.0 µM): 92.0 ± 0.9 % of control | cell viability ([1]; 48 h, 10.0 µM): 93.9 ± 6.4 % of control | cell viability ([1]; 48 h, 100.0 µM): 9.9 ± 0.2 % of control | cell viability ([2]; MCF-7, 24 h, 1.0 µM): 100.5 ± 0.9 % of control | cell viability ([2]; MCF-7, 24 h, 10.0 µM): 97.0 ± 2.6 % of control | cell viability ([2]; MCF-7, 24 h, 100.0 µM): 10.0 ± 1.0 % of control | cell viability ([2]; MCF-7, 48 h, 1.0 µM): 78.5 ± 9.9 % of control | cell viability ([2]; MCF-7, 48 h, 10.0 µM): 81.6 ± 3.3 % of control | cell viability ([2]; MCF-7, 48 h, 100.0 µM): 21.2 ± 0.1 % of control | cell viability ([3]; MDA-MB-231, 24 h, 1.0 µM): 96.3 ± 7.5 % of control | cell viability ([3]; MDA-MB-231, 24 h, 10.0 µM): 91.3 ± 6.1 % of control | cell viability ([3]; MDA-MB-231, 24 h, 100.0 µM): 21.1 ± 0.9 % of control | cell viability ([3]; MDA-MB-231, 48 h, 1.0 µM): 103.2 ± 2.4 % of control | cell viability ([3]; MDA-MB-231, 48 h, 10.0 µM): 102.3 ± 4.1 % of control | cell viability ([3]; MDA-MB-231, 48 h, 100.0 µM): 10.6 ± 0.2 % of control | cell viability (HaCaT keratinocytes; 24 h, 1.0 µM): 92.3 ± 5.0 % of control | cell viability (HaCaT keratinocytes; 24 h, 10.0 µM): 88.3 ± 8.6 % of control | cell viability (HaCaT keratinocytes; 24 h, 100.0 µM): 7.8 ± 0.3 % of control | cell viability (HaCaT keratinocytes; 48 h, 1.0 µM): 72.2 ± 4.3 % of control | cell viability (HaCaT keratinocytes; 48 h, 10.0 µM): 56.8 ± 4.8 % of control | cell viability (HaCaT keratinocytes; 48 h, 100.0 µM): 16.8 ± 0.2 % of control | IC50 at 24 h ([4]; HaCaT keratinocytes, 24 h): 52.8 ± 1.1 µM | IC50 at 48 h ([4]; HaCaT keratinocytes, 48 h): 25.3 ± 0.8 µM | IC50 at 24 h ([4]; MCF-7 breast cancer cells, MCF-7, 24 h): 58.6 ± 4.2 µM | IC50 at 48 h ([4]; MCF-7 breast cancer cells, MCF-7, 48 h): 53.5 ± 1.1 µM | IC50 at 24 h ([4]; MCF-10A breast epithelial cells, MCF10A, 24 h): 61.5 ± 1.3 µM | IC50 at 48 h ([4]; MCF-10A breast epithelial cells, MCF10A, 48 h): 57.1 ± 2.8 µM | IC50 at 24 h ([4]; MDA-MB-231 breast cancer cells, MDA-MB-231, 24 h): 62.9 ± 3.1 µM | IC50 at 48 h ([4]; MDA-MB-231 breast cancer cells, MDA-MB-231, 48 h): 61.3 ± 2.1 µM | MIC ([5]; Staphylococcus aureus, ATCC21027, S. aureus, read-out: total inhibition (MIC100) of growth): 6.85 ± 0.53 µM (≈ 2.78 µg/mL) | MIC50 (Candida albicans KMM 455 [6]; Candida albicans, KMM455, 18 h): 7 to 10 µM (≈ 2.84 to 4.06 µg/mL) | MIC (Candida albicans KMM 455 [6]; Candida albicans, KMM455, read-out: total inhibition (MIC100) of growth): 11.5 ± 0.9 µM (≈ 4.66 µg/mL) | MIC ([7]; Escherichia coli, E. coli, read-out: total inhibition (MIC100) of growth): 12.4 ± 1.02 µM (≈ 5.05 µg/mL) | cell viability (H9c2 cardiomyocytes; H9c2, 24 h, 1.0 µM): 101.9 ± 2.9 % of control | cell viability (H9c2 cardiomyocytes; H9c2, 24 h, 10.0 µM): 50.5 ± 1.8 % of control | cell viability (H9c2 cardiomyocytes; H9c2, 24 h, 100.0 µM): 33.6 ± 0.3 % of control | cell viability (H9c2 cardiomyocytes; H9c2, 48 h, 1.0 µM): 105.6 ± 3.4 % of control | cell viability (H9c2 cardiomyocytes; H9c2, 48 h, 10.0 µM): 94.0 ± 3.0 % of control | cell viability (H9c2 cardiomyocytes; H9c2, 48 h, 100.0 µM): 10.1 ± 0.2 % of control | IC50 at 24 h ([8]; H9c2, 24 h): 9.8 ± 1.3 µM | IC50 at 48 h ([8]; H9c2, 48 h): 57.2 ± 3 µM | MIC100 of biofilm formation ([9]; S. aureus): 10.45 ± 0.96 µM | MIC100 of biofilm formation (Candida albicans KMM 455 [10]; C. albicans): 12.01 ± 1.01 µM | MIC100 of biofilm formation ([11]; E. coli): 23.08 ± 2.00 µM | MIC50 (E. coli): 2.0 µg/mL (≈ 4.93 µM)

asterredione [Compound 9]
cell viability ([1]; 24 h, 1.0 µM): 100.7 ± 0.9 % of control | cell viability ([1]; 24 h, 10.0 µM): 97.5 ± 3.5 % of control | cell viability ([1]; 24 h, 100.0 µM): 66.3 ± 3.6 % of control | IC50 ([1]; 24 h, read-out: Cytotoxicity IC50): > 100 µM | cell viability ([1]; 48 h, 1.0 µM): 96.7 ± 5.1 % of control | cell viability ([1]; 48 h, 10.0 µM): 79.4 ± 4.3 % of control | cell viability ([1]; 48 h, 100.0 µM): 61.5 ± 1.9 % of control | IC50 ([1]; 48 h, read-out: Cytotoxicity IC50): > 100 µM | IC50 ([1]; time not stated, read-out: half-maximal concentration (IC50), viability): > 100 µM | IC50 ([2]; MCF-7, 24 h, read-out: Cytotoxicity IC50): 51.3 ± 2.6 µM | cell viability ([2]; MCF-7, 48 h, 1.0 µM): 97.8 ± 1.1 % of control | cell viability ([2]; MCF-7, 48 h, 10.0 µM): 78.6 ± 7.6 % of control | cell viability ([2]; MCF-7, 48 h, 100.0 µM): 21.2 ± 6.6 % of control | IC50 ([2]; MCF-7, 48 h, read-out: Cytotoxicity IC50): 55.1 ± 3.9 µM | IC50 ([2]; MCF-7, time not stated, read-out: IC50, viability): ~50 µM | cell viability ([3]; MDA-MB-231, 24 h, 1.0 µM): 96.3 ± 3.2 % of control | cell viability ([3]; MDA-MB-231, 24 h, 10.0 µM): 106.3 ± 9.9 % of control | cell viability ([3]; MDA-MB-231, 24 h, 100.0 µM): 82.5 ± 1.3 % of control | IC50 ([3]; MDA-MB-231, 24 h): > 100 µM | cell viability ([3]; MDA-MB-231, 48 h, 1.0 µM): 103.2 ± 0.9 % of control | cell viability ([3]; MDA-MB-231, 48 h, 10.0 µM): 90.5 ± 2.7 % of control | cell viability ([3]; MDA-MB-231, 48 h, 100.0 µM): 52.9 ± 3.4 % of control | IC50 ([3]; MDA-MB-231, 48 h): ≥ 100 µM | decrease of viability (HaCaT keratinocytes; 100 µM for 48 h): 23% | cell viability (HaCaT keratinocytes; 24 h, 1.0 µM): 88.7 ± 3.0 % of control | cell viability (HaCaT keratinocytes; 24 h, 10.0 µM): 79.2 ± 2.1 % of control | cell viability (HaCaT keratinocytes; 24 h, 100.0 µM): 62.0 ± 6.9 % of control | IC50 (HaCaT keratinocytes; 24 h): > 100 µM | cell viability (HaCaT keratinocytes; 48 h, 1.0 µM): 99.5 ± 2.3 % of control | cell viability (HaCaT keratinocytes; 48 h, 10.0 µM): 92.6 ± 11.2 % of control | cell viability (HaCaT keratinocytes; 48 h, 100.0 µM): 77.1 ± 1.5 % of control | IC50 (HaCaT keratinocytes; 48 h): > 100 µM | toxicity (HaCaT keratinocytes; at 10 µM): not toxic | MIC50 ([5]; S. aureus, 18 h): >100 µM | effect on S. aureus growth ([5]; at / up to 100 µM): did not affect | MIC50 (Candida albicans KMM 455 [6]): >100 µM | MIC50 ([7]; E. coli, 18 h): >100 µM | effect on E. coli growth ([7]; at / up to 100 µM): did not affect | decrease of viability (H9c2 cardiomyocytes; H9c2, 100 µM for 48 h): 38% | cell viability (H9c2 cardiomyocytes; H9c2, 24 h, 1.0 µM): 101.1 ± 6.6 % of control | cell viability (H9c2 cardiomyocytes; H9c2, 24 h, 10.0 µM): 101.7 ± 3.2 % of control | cell viability (H9c2 cardiomyocytes; H9c2, 24 h, 100.0 µM): 73.1 ± 5.1 % of control | IC50 (H9c2 cardiomyocytes; H9c2, 24 h): > 100 µM | cell viability (H9c2 cardiomyocytes; H9c2, 48 h, 1.0 µM): 90.2 ± 7.1 % of control | cell viability (H9c2 cardiomyocytes; H9c2, 48 h, 10.0 µM): 93.0 ± 10.4 % of control | cell viability (H9c2 cardiomyocytes; H9c2, 48 h, 100.0 µM): 62.2 ± 10.4 % of control | IC50 (H9c2 cardiomyocytes; H9c2, 48 h): > 100 µM | toxicity (H9c2 cardiomyocytes; H9c2, at 10 µM): not toxic | cytotoxic activity [12]: moderate cytotoxic activity | cytotoxic activity (CNS glioma SF-268 cells): moderate cytotoxic activity | cytotoxic activity [13]: moderate cytotoxic activity | Biofilm formation, MIC50 ([9]; S. aureus, 18 h): >100 µM | effect on S. aureus biofilm formation ([9]; at / up to 100 µM): did not affect | Biofilm formation, MIC50 (Candida albicans KMM 455 [10]; C. albicans, 18 h): >100 µM | prevention of C. albicans biofilm formation (Candida albicans KMM 455 [10]; at 100 µM): 41.18 ± 4.91% | Biofilm formation, MIC50 ([11]; E. coli, 18 h): >100 µM | effect on E. coli biofilm formation ([11]; at / up to 100 µM): did not affect
